One test addresses T1, Rat Hepatic V1 Receptors (Rattus norvegicus, UniProt P30560).
T1 construct: Rat liver plasma membranes expressing the vasopressin V1 receptor subtypes; from tissue; host or cells: rat liver plasma membranes
The test is described as follows: Binding Assay to Rat Hepatic V1 Receptors. On the procedure: Binding Assay to Rat Hepatic V1 Receptors
Rat liver plasma membranes expressing the vasopressin V1 receptor subtypes are isolated by sucrose density gradient according to the method described by Lesko et al., (1973). These membranes are quickly suspended in 50.0 mM Tris.HCl buffer, pH 7.4, containing 0.2% bovine serum albumin (BSA) and 0.1 mM phenylmethylsulfonylfluoride (PMSF) and kept frozen at -70° C. until used in subsequent binding experiments. For binding experiments, the following is added to the wells of a ninety-six well format microtiter plate: 100 μl of 100.0 mM Tris.HCl buffer containing 10.0 mM MgCl2, 0.2% heat inactivated BSA and a mixture of protease inhibitors: leupeptin, 1.0 mg %; aprotinin, 1.0 mg %; 1,10-phenanthroiine,2.0 mg %; trypsin inhibitor, 10.0 mg % and 0.1 mM PMSF, 20.0 μl of [phenylalanyl-3,4,5, -^3 H] vasopressin (S.A. 45.1 Ci/mmole) at 0.8 nM, and the reaction initiated by the addition of 80 μl of tissue membranes containing 20 μg of tissue protein. The plates are kept undisturbed on the bench top at room temperature for 120 min. to reach equilibrium. Non-specific samples are assayed in the presence of 0.1 μM of the unlabeled antagonist phenylalanylvasopressin, added in 20.0 μl volume.
(§1) For test compounds, these are solubilized in 50% dimethylsulfoxide (DMSO) and added in 20.0 μl volume to a final incubation volume of 200 μl . Upon completion of binding, the content of each well is filtered off, using a Brandel® cell Harvester (Gaithersburg, Md.). The radioactivity trapped on the filter disk by the ligand-receptor complex is assessed by liquid scintillation counting in a Packard LS Counter, with an efficiency of 65% for tritium. The data are analyzed for IC50 values by the LUNDON-2 program for competition (LUNDON SOFTWARE, Ohio).

Test [1] concerns the target T2, Rat Kidney Medullary V2 Receptors (Rattus norvegicus, UniProt Q00788).
T2 construct: Medullary tissues from rat kidneys are dissected out; from tissue; host or cells: rat kidney medulla membranes
The experiment in a line: Binding Assay to Rat Kidney Medullary V2 Receptors. Particulars: rat kidney medulla membranes; read-out: V2 IC50. On the procedure: Binding Assay to Rat Kidney Medullary V2 Receptors
Medullary tissues from rat kidneys are dissected out, cut into small pieces and soaked in a […] sodium chloride solution containing 1.0 mM EDTA with many changes of the liquid phase, until the solution is clear of blood. The tissue is homogenized in a 0.25M sucrose solution containing 1.0 mM EDTA and 0.1 mM PMSF using a Potter-Elvehjem homogenizer with a teflon pestle. The homogenate is filtered through several layers (4 layers) of cheese cloth. The filtrate is rehomogenized using a dounce homogenizer, with a tight fitting pestle. The final homogenate is centrifuged at 1500× g for 15 min. The nuclear pellet is discarded and the supernatant fluid recentrifuged at 40,000× g for 30 min. The resulting pellet formed contains a dark inner part with the exterior., slightly pink. The pink outer part is suspended in a small amount of 50.0 mM Tris. HCl buffer, pH 7.4. The protein content is determined by the Lowry's method (Lowry et al., J. Biol. Chem., 1953). The membrane suspension is stored at -70° C. in 50.0 mM Tris HCl, containing 0.2% inactivated BSA and 0.1 mM PMSF in aliquots of 1.0 ml containing 10.0 mg protein per ml of suspension until use in subsequent binding experiments.
as §1, with “The plates are left undisturbed on the bench top for 120 min to reach equilibrium. Non-specific binding is assessed in the presence of 1.0 μM of unlabeled ligand, added in 20 μl volume. For” for “For”, “μl.” for “μl .”

The test system of the next test is Vasopressin V1. The experiment in a line: Vasopressin V1 Antagonist Activity in Conscious Rats (vasopressin vasopressor response). In kind it is in vivo, rat. Details: Average Change: unit not given here. As to conditions: for % Inhibition / Average Change: SHR. An outline of the steps: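 Conscious rats are restrained supine, and under local 2% procaine a PE 10/20 cannula is passed through the ventral caudal tail artery into the lower abdominal aorta. The caudal vein is cannulated for intravenous dosing. Blood pressure is recorded with a Statham P23Db transducer, and vasopressin injections are repeated after compound dosing. Percent antagonism is calculated against the pre-drug vasopressor response taken as 100%.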

Where [2] appears, read: rat liver membranes; read-out: V1 IC50.
[3] abbreviates: 10 mg/kg i.v., VAS 0.01 i.u./kg, 30 min.
Setting [4] is: 10 mg/kg i.v., VAS 0.01 i.u./kg, 60 min.
Setting [5] is: 10 mg/kg i.v., VAS 0.01 i.u./kg, 90 min.
The mark [6] stands for this setting: 10 mg/kg i.v., VAS 0.01 i.u./kg, 120 min.
The mark [7] stands for this setting: 10 mg/kg i.v., VAS 0.01 i.u./kg, 180 min.
The mark [8] stands for this setting: 10 mg/kg i.v., VAS 0.01 i.u./kg, 240 min.
Where [9] appears, read: 10 mg/kg i.v., VAS 0.01 i.u./kg, 300 min.
Where [10] appears, read: 10 mg/kg i.v., VAS 0.02 i.u./kg, 30 min.
Setting [11] is: 10 mg/kg i.v., VAS 0.02 i.u./kg, 60 min.
[12] abbreviates: 10 mg/kg i.v., VAS 0.02 i.u./kg, 90 min.
[13] abbreviates: 10 mg/kg i.v., VAS 0.02 i.u./kg, 120 min.
Setting [14] is: 10 mg/kg i.v., VAS 0.02 i.u./kg, 180 min.
The mark [15] stands for this setting: 10 mg/kg i.v., VAS 0.02 i.u./kg, 240 min.
The mark [16] stands for this setting: 10 mg/kg i.v., VAS 0.02 i.u./kg, 300 min.
Setting [17] is: 20 mg/kg i.v., VAS 0.01 i.u./kg, 60 min.
[18] abbreviates: 20 mg/kg i.v., VAS 0.01 i.u./kg, 90 min.
Setting [19] is: 20 mg/kg i.v., VAS 0.01 i.u./kg, 120 min.
Setting [20] is: 20 mg/kg i.v., VAS 0.01 i.u./kg, 180 min.
The mark [21] stands for this setting: 20 mg/kg i.v., VAS 0.01 i.u./kg, 240 min.
Setting [22] is: 20 mg/kg i.v., VAS 0.01 i.u./kg, 300 min.
The mark [23] stands for this setting: 20 mg/kg i.v., VAS 0.02 i.u./kg, 60 min.
The mark [24] stands for this setting: 20 mg/kg i.v., VAS 0.02 i.u./kg, 90 min.
Setting [25] is: 20 mg/kg i.v., VAS 0.02 i.u./kg, 120 min.
Setting [26] is: 20 mg/kg i.v., VAS 0.02 i.u./kg, 180 min.
[27] abbreviates: 20 mg/kg i.v., VAS 0.02 i.u./kg, 240 min.
[28] abbreviates: 20 mg/kg i.v., VAS 0.02 i.u./kg, 300 min.

The IC50 is the point on the concentration scale where inhibition reaches its midpoint. In general, % Inhibition refers to the drop in the measured response relative to a control, in per cent.

Like-named read-outs stand apart in the source and are kept apart here.

T1 sequence (P30560 whole entry): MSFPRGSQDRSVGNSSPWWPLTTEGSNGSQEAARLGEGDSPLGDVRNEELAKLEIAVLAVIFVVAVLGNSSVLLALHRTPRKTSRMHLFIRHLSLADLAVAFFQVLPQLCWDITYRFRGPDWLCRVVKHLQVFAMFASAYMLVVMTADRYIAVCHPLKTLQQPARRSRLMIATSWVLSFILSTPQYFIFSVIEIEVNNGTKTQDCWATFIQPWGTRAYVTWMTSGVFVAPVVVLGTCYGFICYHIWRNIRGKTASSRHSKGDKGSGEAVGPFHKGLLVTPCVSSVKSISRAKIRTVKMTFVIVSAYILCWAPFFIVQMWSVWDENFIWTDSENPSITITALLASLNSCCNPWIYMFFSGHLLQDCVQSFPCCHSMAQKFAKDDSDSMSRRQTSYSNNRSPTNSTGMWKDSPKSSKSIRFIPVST
T2 sequence (Q00788 whole entry): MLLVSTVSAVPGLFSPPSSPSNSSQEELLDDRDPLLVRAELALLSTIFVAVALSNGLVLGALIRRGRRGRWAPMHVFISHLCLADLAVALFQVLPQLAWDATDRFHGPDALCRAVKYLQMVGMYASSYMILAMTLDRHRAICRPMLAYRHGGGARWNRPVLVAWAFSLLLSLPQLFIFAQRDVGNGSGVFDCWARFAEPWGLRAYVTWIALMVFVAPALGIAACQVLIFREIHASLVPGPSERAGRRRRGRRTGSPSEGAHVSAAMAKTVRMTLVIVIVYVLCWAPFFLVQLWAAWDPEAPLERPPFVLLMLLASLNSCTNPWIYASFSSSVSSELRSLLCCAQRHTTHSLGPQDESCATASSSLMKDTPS

For the molecule `O=C(Nc1ccc(C(=O)N2Cc3cccn3Cc3ccccc32)cc1)c1ccccc1C(F)(F)F` [Example 91, N-[4-(5H-Pyrrolo[2,1-c][1,4]benzodiazepin-10(11H)-ylcarbonyl)phenyl]-2-(trifluoromethyl)benzamide], the IC50 at Rat Hepatic V1 Receptors (setting [2]) came to 26 nM; in test [1] it was 22 nM. Besides, the “% Inhibition” value in the test on Vasopressin V1 (setting [3]) is recorded as 90%; with Vasopressin V1 (setting [4]), 87%; with Vasopressin V1 (setting [5]), 81%; with Vasopressin V1 (setting [6]) it was 73%; in the test with Vasopressin V1 (setting [7]) it was 55%; with Vasopressin V1 (setting [8]), 59%. In addition, the “% Inhibition” value in the test on Vasopressin V1 (setting [9]) came out at 66%; with Vasopressin V1 (setting [10]) it was 88%; with Vasopressin V1 (setting [11]), 89%; in the test with Vasopressin V1 (setting [12]), 80%; with Vasopressin V1 (setting [13]), 72%; in the test with Vasopressin V1 (setting [14]), 54%. Also, the “% Inhibition” value turned out to be 53% in the test on Vasopressin V1 (setting [15]) and 48% in the test on Vasopressin V1 (setting [16]). Also, the “Average Change” value was found to be 5 in the test with Vasopressin V1 (setting [3]); 6.5 with Vasopressin V1 (setting [4]); 9 with Vasopressin V1 (setting [5]); 13 in the test on Vasopressin V1 (setting [6]); 22 with Vasopressin V1 (setting [7]); 20 with Vasopressin V1 (setting [8]). Moreover, the “Average Change” value in the test with Vasopressin V1 (setting [9]) was 16.5; with Vasopressin V1 (setting [10]) it was 7.5; with Vasopressin V1 (setting [11]), 7; with Vasopressin V1 (setting [12]), 12.5; with Vasopressin V1 (setting [13]), 17.5; with Vasopressin V1 (setting [14]), 29. In addition, the results for the “Average Change” value in the test with Vasopressin V1 (setting [15]) and in the test with Vasopressin V1 (setting [16]) were 29.5 and 32.5, respectively.

Regarding `Cc1ccccc1NC(=O)Nc1ccc(C(=O)N2Cc3cccn3Cc3ccccc32)cc1` [Example 116, 10,11-Dihydro-10-[4-[[[(2-methylphenyl]amino]-carbonl]amino]benzoyl]-5H-pyrrolo[2,1-c]-[1,4]benzodiazepine], the IC50 was 280 nM on Rat Hepatic V1 Receptors (read-out: V1 IC50; rat liver membranes) and 85 nM in test [1]. Also, the “% Inhibition” value is on record as 22% in the test with Vasopressin V1 (setting [3]); 38% with Vasopressin V1 (setting [4]); 34% in the test with Vasopressin V1 (setting [5]); 33% with Vasopressin V1 (setting [6]); 38% with Vasopressin V1 (setting [7]); 45% in the test with Vasopressin V1 (setting [8]). In addition, the “% Inhibition” value in the test with Vasopressin V1 (setting [9]) was 24%; with Vasopressin V1 (setting [10]) it was 24%; in the test on Vasopressin V1 (setting [11]), 30%; in the test on Vasopressin V1 (setting [12]), 33%; with Vasopressin V1 (setting [13]), 17%; with Vasopressin V1 (setting [14]), 17%. Further, the “% Inhibition” value was 20% in the test with Vasopressin V1 (setting [15]) and 14% in the test on Vasopressin V1 (setting [16]). The “Average Change” value is recorded as 22.5 in the test with Vasopressin V1 (setting [3]); 18 with Vasopressin V1 (setting [4]); 19 in the test on Vasopressin V1 (setting [5]); 19.5 in the test on Vasopressin V1 (setting [6]); 18 in the test on Vasopressin V1 (setting [7]); 16 in the test with Vasopressin V1 (setting [8]). Besides, the “Average Change” value in the test with Vasopressin V1 (setting [9]) stood at 22; in the test on Vasopressin V1 (setting [10]), 36.5; with Vasopressin V1 (setting [11]), 33.5; in the test on Vasopressin V1 (setting [12]), 32; in the test on Vasopressin V1 (setting [13]) it was 40; in the test with Vasopressin V1 (setting [14]), 40. For the same molecule, the “Average Change” value is on record as 38.5 in the test on Vasopressin V1 (setting [15]) and 41.5 with Vasopressin V1 (setting [16]).

For `O=C(Nc1ccc(C(=O)N2Cc3cccn3Cc3ccccc32)cc1)c1ccc2[nH]ccc2c1` [Example 117, N-[4-(5H-pyrrolo[2,1-c][1,4]benzodiazepin-10(11H)-ylcarbonyl)phenyl]-1H-indole-5-carboxamide], the figures for the half-maximal inhibitory concentration (IC50) (on Rat Hepatic V1 Receptors (setting [2]); in test [1]) were 2770 nM and 377 nM, respectively. Moreover, the “% Inhibition” value in the test with Vasopressin V1 (setting [3]) was 1%; in the test on Vasopressin V1 (setting [10]), -12%; in the test with Vasopressin V1 (setting [17]), 1%; in the test on Vasopressin V1 (setting [18]), 38%; in the test with Vasopressin V1 (setting [19]) it was 37%; with Vasopressin V1 (setting [20]) it was 27%. For the same molecule, the “% Inhibition” value in the test with Vasopressin V1 (setting [21]) came to 32%; in the test with Vasopressin V1 (setting [22]), 29%; in the test on Vasopressin V1 (setting [23]) it was 29%; in the test with Vasopressin V1 (setting [24]) it was 19%; in the test with Vasopressin V1 (setting [25]) it was 33%; in the test on Vasopressin V1 (setting [26]) it was 19%. Besides, the results for the “% Inhibition” value in the test with Vasopressin V1 (setting [27]) and in the test with Vasopressin V1 (setting [28]) were 28% and 25%, respectively. Besides, the “Average Change” value in the test on Vasopressin V1 (setting [3]) was determined as 36; in the test with Vasopressin V1 (setting [10]), 63; with Vasopressin V1 (setting [17]), 36; in the test on Vasopressin V1 (setting [18]), 22.5; in the test on Vasopressin V1 (setting [19]), 23; with Vasopressin V1 (setting [20]), 26.5. Moreover, the “Average Change” value in the test with Vasopressin V1 (setting [21]) is recorded as 25; in the test with Vasopressin V1 (setting [22]) it was 26; in the test on Vasopressin V1 (setting [23]), 40; with Vasopressin V1 (setting [24]) it was 46; in the test with Vasopressin V1 (setting [25]) it was 38; in the test with Vasopressin V1 (setting [26]), 46. Moreover, the “Average Change” value with Vasopressin V1 (setting [27]) is given as 40.5; in the test with Vasopressin V1 (setting [28]) it was 42.5.

Consider `Cc1ccccc1C(=O)Nc1ccc(C(=O)N2Cc3cccn3Cc3sccc32)cc1` [Example 267, N-[4-(5H-Pyrrolo[1,2-a]thieno[3,2-e][1,4]diazepin-4(10H)-ylcarbonyl)phenyl]-2-methylbenzamide], for which the half-maximal inhibitory concentration (IC50) at Rat Hepatic V1 Receptors (setting [2]) turned out to be 220 nM; in test [1], 28 nM. Moreover, the “Max. % Inhibition” value in the test with Vasopressin V1 (10 mg/kg i.v.) turned out to be 56%. Also, in the test with Vasopressin V1 (10 mg/kg i.v.), the “Time (of max. % inhibition)” value came to 60 min.

These data come from US5624923A, “Tricyclic diazepine vasopressin antagonists and oxytocin antagonists” (priority 1995, dated 1997).
